# In PMC8312610, “F4, a collagen XIX-derived peptide, inhibits tumor angiogenesis through αvβ3 and α5β1 integrin interaction” (Cell Adhesion & Migration, 2021):
# Entries after “also recorded” stand apart in the source; their conditions may differ. Positions of bridges follow the written chain, without caps; N, C: chain ends. No end group written: not given here.
# Tests used:
# [1] = tested on: HUVEC (Human Umbilical Vein Endothelial Cells); assay: HUVEC proliferation (crystal violet); assay type: cell-based; details: 40 μM, 48 h, 5,000 HUVEC per well in ECGM, 560 nm, means ± SD (n = 16), N = 3
# Method: Figure 1. […] 5,000 HUVEC were seeded in a 96 well plate and incubated with or without 40 μM NC1(XIX) or F4 for 48 hours. After washing, cells were fixed with glutaraldehyde and stained with crystal violet. Dye was eluted with 10% acetic acid and absorbance was read at 560 nm. The values are the means ± SD (n = 16). The experiment was repeated three times (N = 3) and the results presented in the figure correspond to the more representative one
# Human Umbilical Vein Endothelial Cells (HUVEC) (Ref C-12253) were purchased from Promocell. They were grown in Endothelial Cell Growth Medium (ECGM) (Promocell, Ref C-22110: Basal medium supplemented with 0.02 mL/mL Fetal Calf Serum, 0.004 mL/mL Endothelial Cell Growth Supplement, 0.1 ng/mL Epidermal Growth Factor (recombinant human), 1 ng/mL Basic Fibroblast Growth Factor (recombinant human), 90 μg/mL Heparin, 1 μg/mL Hydrocortisone) at +37°C in a humid atmosphere containing 5% CO2. PromoCell Detach Kit was used for the detachment of HUVEC according to the manufacturer’s protocols (Promocell, ref C-41200).
# For cell proliferation measurement, 5,000 HUVEC were seeded in 96-well plates and cultivated in ECGM with or without 40 μM NC1(XIX) or F4 at +37°C in a humid atmosphere containing 5% CO2. […] Dye was eluted with 10% (v/v) acetic acid and absorbance was read at 560 nm.
# α5β1 integrin = assay: Solid phase assay, direct binding to α5β1; parameters: species or system human; details: solid phase assays
# Description: (§1) Figure 5. F4 directly binds to αvβ3 and α5β1 integrins. Direct interaction between αvβ3 or α5β1 integrin and F4 was studied using solid phase assays as described in the material and method section. The F4 peptide was biotinylated to allow its detection using the streptavidin-peroxidase complex. Different conditions were used. (a-b) The amounts of coated αvβ3 (a) or α5β1 integrin (b) were increased while biotinylated F4 peptide was kept constant. (c-d) The concentration of biotinylated F4 peptide was increased while coated amounts of αvβ3 (c) or α5β1 (d) integrins were kept constant. (e-f) Competitive assays were performed using increasing concentrations of F4 peptide while biotinylated-F4 peptide and αvβ3 (e) or α5β1 (f) integrins were kept constant. […]
# (§2) Wells of a 96-well plate were coated with α5β1 (ref. 3230-A5-050, R&D systems) and/or αvβ3 integrin (ref. 3050-AV-050, R&D systems) at different concentrations ranging from 26 × 10^−7 mol/L to 0.1 × 10^−7 mol/L (100 μL per well in PBS). […] The intensity of the yellow coloration was measured at 450 nm with an LB940 spectrophotometer (Berthold Technologies).
# (§3) The optimum integrin amount for the coating was determined using the above protocol and the optimum ligand concentration was sought using different dilutions of the biotinylated-F4 peptide ranging from 20.8 × 10^−4 to 0.16 × 10^−4 mol/L.
# αvβ3 integrin [2] = assay: Solid phase competition assay with biotinylated-F4, αvβ3; assay type: binding, human; details: unlabeled F4, molar ratio 1/0 to 1/125, integrin coated at 26 × 10^−7 mol/L, 90 min, room temperature, N = 2
# Description: Figure 5. F4 directly binds to αvβ3 and α5β1 integrins. Direct interaction between αvβ3 or α5β1 integrin and F4 was studied using solid phase assays as described in the material and method section. The F4 peptide was biotinylated to allow its detection using the streptavidin-peroxidase complex. Different conditions were used. (a-b) The amounts of coated αvβ3 (a) or α5β1 integrin (b) were increased while biotinylated F4 peptide was kept constant. (c-d) The concentration of biotinylated F4 peptide was increased while coated amounts of αvβ3 (c) or α5β1 (d) integrins were kept constant. (e-f) Competitive assays were performed using increasing concentrations of F4 peptide while biotinylated-F4 peptide and αvβ3 (e) or α5β1 (f) integrins were kept constant. The solid phase assays were repeated twice (N = 2; n = 2)
# as §2, with “PBS). The 96-well plate was left overnight at room temperature. The coating was then blocked with TBS containing 5% nonfat dry milk, 1 mM MgCl2 and 1 mM CaCl2 for 2 h at room temperature.” for “PBS).”, “Technologies). […]” for “Technologies).”
# αvβ3 integrin [3] = assay: Solid phase assay, direct binding to αvβ3; parameters: species or system human; details: solid phase assays
# Description: as §1, §2, §3
# [4] = tested on: Sprague Dawley rat aortic rings; assay: Ex vivo rat aortic ring assay (endothelial cell outgrowth); assay type: cell-based
# Method: Figure 3. NC1(XIX) and F4 inhibit endothelial cell ex vivo migration. Rat aortic rings were embedded in Matrigel in 24 well-plate and then incubated with or without 40 μM NC1(XIX) or F4 for 14 days. Micro-vessel outgrowth was observed under an inverted microscope after 14 days and photographed (a). Cell outgrowth from the tissue explant was measured using a home-made macro based on ImageJ analysis software. The results are presented as mean ± SD (n = 5 replicates) (b). The experiment was repeated twice (N = 2)
# The ex vivo rat aortic ring assay was adapted from Baker et al.. Thoracic aorta was dissected from Sprague Dawley rat and stored in Opti-MEM (ThermoFisher, ref 31985062) supplemented with 1% penicillin/streptomycin in a Petri dish. Aorta was then cut into 0.5 mm rings that were incubated in Opti-MEM overnight at +37°C in a Petri dish. Matrigel (7 mg/mL) was loaded in 24-well plate and allowed to polymerize at +37°C for 30 min. The rings were carefully transferred from the Petri dish onto the Matrigel coated wells and were completely embedded by addition of Matrigel. The plate was incubated at +37°C for 30 min. Opti-MEM supplemented with 30 ng/mL VEGF with or without 40 μM NC1(XIX) or F4 was added. Plate was incubated at +37°C in a humid atmosphere containing 5% CO2 for 14 days. The supplemented culture medium was changed every 3 days. Rings were imaged under an inverted light microscope at 14 days. Quantitative evaluation of the angiogenic sprouting was determined by measuring the number of endothelial cell outgrowth from the primary tissue explant using a homemade macro based on ImageJ analysis software. The first step consisted in the semi-automatic selection of aortic ring shape at day 0 by manual threshold allowing the design of a top hat filter to obtain a relevant mask of this structure. The mask was then substracted from day 14 image to keep only outgrowing cells. The second step consisted in a manual threshold and the use of ‘Analyze Particules’ tool involving size criteria. The total cell number of cell outgrowing from the ring was determined.
sequence,measurement,setting,value
"CNPEDCLYPVSHAHQR (disulfide 1-6 (inferred)) [F4, collagen XIX-derived peptide, released by plasmin from type XIX collagen]",effect on HUVEC proliferation,[1],not significantly modified; also recorded: does not affect endothelial cell proliferation
same,direct binding to α5β1 (conclusion),α5β1 integrin,binds to both αvβ3 and α5β1 integrins in a direct manner
same,competition with biotinylated-F4 binding to αvβ3,αvβ3 integrin [2],decreased consequently
same,direct binding to αvβ3 (conclusion),αvβ3 integrin [3],binds to both αvβ3 and α5β1 integrins in a direct manner
same,"cell outgrowth, F4 compared with NC1(XIX)","[4]; 40 μM, 14 days, Opti-MEM with 30 ng/mL VEGF",even stronger than NC1(XIX) effect
same,change of cell outgrowth from aortic ring vs control,"[4]; 40 μM, 14 days, Opti-MEM with 30 ng/mL VEGF, Matrigel, mean ± SD (n = 5), N = 2, p < 0.01 NC1(XIX), p < 0.001 F4",−78%
same,"anti-angiogenic effect on aortic endothelial sprouting, F4 compared with NC1(XIX) (discussion)",[4]; ex vivo,even greater than the whole NC1(XIX) domain
same,inhibition of endothelial sprouting,[4]; rat aortic ring assay (abstract),endothelial sprouting in a rat aortic ring assay
